Values of other authors in patent US20060234993A1, “Use of androstane derivatives for enhancing physical performance” (priority 2005, published 2006).
Read-outs that look alike come from different tables or passages of the source.

Assays:
[1] = in vivo
[2] = test system: mice

Compound: C[C@]12CC[C@H](O)CC1=CC[C@@H]1[C@@H]2CC[C@]2(C)C(=O)CC[C@@H]12 [DHEA, dehydroepiandrosterone]
- estrogenic and androgenic side effects, including gynecomastia, water retention (edema), fat retention, prostate enlargement, acne, hair loss [1]: negative estrogenic and androgenic side effects

Compound: C[C@]12CC[C@@H](O)C[C@H]1CC[C@@H]1[C@@H]2CC[C@]2(C)C(=O)CC[C@@H]12 [Etiocholanolone, 3-alpha (beta)-hydroxy-5β-androstan-17-one]
- body weight ([2]; normal mice): reduce body weight
- body weight ([2]; obese mice): reduce body weight
